Where “and” joins values, the source holds several entries; their conditions need not be identical. Identical values can stand only once. Toxic doses and inconclusive results are not listed. Rule as the data show it: active = T/C of 150% or more; inactive = T/C below 125%.
System: L1210 leukemia ip in BDF1 mice, survival T/C
Experiment: NCI In Vivo Anticancer Drug Screen. Data for tumor model L1210 Leukemia (intraperitoneal) in B6D2F1 (BDF1) mice
Settings: endpoint: mean survival time, higher = longer survival
How it was run: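 Mice bearing the transplanted tumor received compound or vehicle. Survival of the treated group was divided by that of the vehicle-treated control group to give the ratio.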

[1] = dose: 100.0 mg/kg/injection, schedule: Q01DX009 (ip), vehicle: Klucel (hydroxypropylcellulose) (HPC)
[2] = dose: 200.0 mg/kg/injection, schedule: Q01DX009 (ip), vehicle: Klucel (hydroxypropylcellulose) (HPC)
[3] = dose: 400.0 mg/kg/injection, schedule: Q01DX009 (ip), vehicle: Klucel (hydroxypropylcellulose) (HPC)
[4] = dose: 100.0 mg/kg/injection, schedule: Q01DX001 (ip), vehicle: saline
[5] = dose: 200.0 mg/kg/injection, schedule: Q01DX001 (ip), vehicle: saline
[6] = dose: 25.0 mg/kg/injection, schedule: Q01DX009 (ip), vehicle: Klucel (hydroxypropylcellulose) (HPC)
[7] = dose: 50.0 mg/kg/injection, schedule: Q01DX009 (ip), vehicle: Klucel (hydroxypropylcellulose) (HPC)
[8] = dose: 100.0 mg/kg/injection, schedule: Q04DX003 (ip), vehicle: Klucel (hydroxypropylcellulose) (HPC)
[9] = dose: 200.0 mg/kg/injection, schedule: Q04DX003 (ip), vehicle: Klucel (hydroxypropylcellulose) (HPC)
[10] = dose: 400.0 mg/kg/injection, schedule: Q04DX003 (ip), vehicle: Klucel (hydroxypropylcellulose) (HPC)
[11] = dose: 50.0 mg/kg/injection, schedule: Q01DX009 (ip), vehicle: saline with Tween-80
[12] = dose: 100.0 mg/kg/injection, schedule: Q01DX009 (ip), vehicle: saline with Tween-80
[13] = dose: 200.0 mg/kg/injection, schedule: Q01DX009 (ip), vehicle: saline with Tween-80
[14] = dose: 100.0 mg/kg/injection, schedule: Q01DX001 (ip), vehicle: saline with Tween-80
[15] = dose: 200.0 mg/kg/injection, schedule: Q01DX001 (ip), vehicle: saline with Tween-80
[16] = dose: 400.0 mg/kg/injection, schedule: Q01DX009 (ip), vehicle: saline with Tween-80
[17] = dose: 12.5 mg/kg/injection, schedule: Q01DX009 (ip), vehicle: saline with Tween-80
[18] = dose: 25.0 mg/kg/injection, schedule: Q01DX009 (ip), vehicle: saline with Tween-80
[19] = dose: 100.0 mg/kg/injection, schedule: Q04DX002 (ip), vehicle: Klucel (hydroxypropylcellulose) (HPC)
[20] = dose: 200.0 mg/kg/injection, schedule: Q04DX002 (ip), vehicle: Klucel (hydroxypropylcellulose) (HPC)
[21] = dose: 400.0 mg/kg/injection, schedule: Q04DX002 (ip), vehicle: Klucel (hydroxypropylcellulose) (HPC)

Measured: T/C

Cc1cc(C)c(NC(=O)Nc2ccc(C(Cl)(Cl)Cl)cc2)c(C)c1
inactive: [1] 95 % of control | [2] 98 % of control | [3] 94 % of control

O=C1C(=C(c2ccccc2)N2CCCCC2)C(=O)c2ccccc21
inactive: [4] 104 % of control | [5] 109 % of control | dose: 400.0 mg/kg/injection, schedule: Q01DX001 (ip), vehicle: saline 106 % of control

CNC1(c2ccccc2)C(=O)CC2CCC1C2 (centres undefined)
inactive: dose: 50.0 mg/kg/injection, schedule: Q04DX003 (ip), vehicle: saline 99 % of control | [4] 105 % of control | dose: 100.0 mg/kg/injection, schedule: Q04DX003 (ip), vehicle: saline 100 % of control | [5] 107 % of control

O=C(O)COc1ccccc1
inactive: [6] 108 % of control | [7] 105 % of control | [1] 93 % of control and 88 % of control

CC(C)(C)[Si](C)(C)OC1CCP(C)(=S)CC1 (centres undefined)
inactive: dose: 100.0 mg/kg/injection, schedule: Q04DX002 (ip), vehicle: saline with Tween-80 98 % of control | dose: 200.0 mg/kg/injection, schedule: Q04DX002 (ip), vehicle: saline with Tween-80 91 % of control | dose: 400.0 mg/kg/injection, schedule: Q04DX002 (ip), vehicle: saline with Tween-80 95 % of control

CCC(CCC(C)C1CCC2C3CC=C4CC(OC5OC(CO)C(O)C(O)C5O)CCC4(C)C3CCC12C)C(C)C (centres undefined)
inactive: dose: 100.0 mg/kg/injection, schedule: Q01DX Z (ip), vehicle: Klucel (hydroxypropylcellulose) (HPC) 92 % of control | [8] 106 % of control | dose: 200.0 mg/kg/injection, schedule: Q01DX Z (ip), vehicle: Klucel (hydroxypropylcellulose) (HPC) 91 % of control | [9] 104 % of control | dose: 400.0 mg/kg/injection, schedule: Q01DX Z (ip), vehicle: Klucel (hydroxypropylcellulose) (HPC) 91 % of control | [10] 90 % of control

CCOC(=O)COc1ccc(/C=C/c2ccnc3ccccc23)cc1
inactive: [1] 100 % of control | [2] 106 % of control | [3] 94 % of control

CCN(C(=O)Nc1ccc(F)c(Cl)c1)c1ccc(Cl)cc1
inactive: [11] 100 % of control | [12] 96 % of control | [13] 96 % of control

C=CC(=O)NCNC(C)C (tested in a mixture with another compound)
inactive: dose: 12.5 mg/kg/injection, schedule: Q01DX009 (ip), vehicle: Klucel (hydroxypropylcellulose) (HPC) 97 % of control | dose: 12.5 mg/kg/injection, schedule: Q01DX009 (ip), vehicle: saline 100 % of control and 93 % of control | [6] 97 % of control | dose: 25.0 mg/kg/injection, schedule: Q01DX009 (ip), vehicle: saline 95 % of control | [7] 90 % of control | dose: 50.0 mg/kg/injection, schedule: Q01DX009 (ip), vehicle: saline 100 % of control

CCCCCCCCCCCCCCCCC1CCCC2(CCCC2)C1 (centres undefined)
inactive: [14] 103 % of control | [15] 92 % of control | dose: 400.0 mg/kg/injection, schedule: Q01DX001 (ip), vehicle: saline with Tween-80 101 % of control

CCNC(=O)NC(CSCSC)C(=O)OC (centres undefined)
inactive: [12] 98 % of control | dose: 100.0 mg/kg/injection, schedule: Q04DX003 (ip), vehicle: saline with Tween-80 104 % of control | [13] 105 % of control | dose: 200.0 mg/kg/injection, schedule: Q04DX003 (ip), vehicle: saline with Tween-80 105 % of control | [16] 96 % of control | dose: 400.0 mg/kg/injection, schedule: Q04DX003 (ip), vehicle: saline with Tween-80 102 % of control

C#CC[As+](c1ccccc1)(c1ccccc1)c1ccccc1
inactive: dose: 6.25 mg/kg/injection, schedule: Q01DX009 (ip), vehicle: Klucel (hydroxypropylcellulose) (HPC) 103 % of control | dose: 12.5 mg/kg/injection, schedule: Q04DX003 (ip), vehicle: Klucel (hydroxypropylcellulose) (HPC) 102 % of control

O=C1NC(=O)C(c2cc(Cl)co2)N1 (centres undefined)
inactive: [8] 105 % of control | [9] 108 % of control | [10] 101 % of control

NNC(=O)CCSc1ccccc1
inactive: [17] 89 % of control | [18] 99 % of control | [11] 105 % of control

CC1CC(=O)NC(=O)N1Cc1ccccc1 (centres undefined)
inactive: dose: 100.0 mg/kg/injection, schedule: Q01DX Z (ip), vehicle: methylcellulose (MC) 91 % of control | dose: 200.0 mg/kg/injection, schedule: Q01DX Z (ip), vehicle: methylcellulose (MC) 92 % of control

[I][Hg][CH2]C1COCC([CH2][Hg][I])O1.[I][Hg][CH2]C1COCC([CH2][Hg][I])O1 (centres undefined)
inactive: dose: 20.0 mg/kg/injection, schedule: Q04DX003 (ip), vehicle: carboxymethylcellulose (CMC) 100 % of control | dose: 40.0 mg/kg/injection, schedule: Q01DX001 (ip), vehicle: carboxymethylcellulose (CMC) 91 % of control | dose: 40.0 mg/kg/injection, schedule: Q04DX003 (ip), vehicle: carboxymethylcellulose (CMC) 105 % of control | dose: 80.0 mg/kg/injection, schedule: Q01DX001 (ip), vehicle: carboxymethylcellulose (CMC) 93 % of control

CCCCC(C(C)=O)C(C)=O
inactive: [1] 100 % of control | [19] 86 % of control | [2] 100 % of control | [20] 93 % of control | [3] 89 % of control | [21] 86 % of control

IC1CCCOC1[n+]1ccccc1 (centres undefined)
inactive: [17] 102 % of control | dose: 12.5 mg/kg/injection, schedule: Q04DX003 (ip), vehicle: saline with Tween-80 96 % of control | [18] 100 % of control | dose: 25.0 mg/kg/injection, schedule: Q04DX003 (ip), vehicle: saline with Tween-80 104 % of control | [11] 103 % of control | dose: 50.0 mg/kg/injection, schedule: Q04DX003 (ip), vehicle: saline with Tween-80 98 % of control

O=[N+]([O-])c1cccc(C=Nc2cccc(Cl)c2)c1
inactive: [19] 96 % of control | [20] 100 % of control | [21] 100 % of control

CCCCCCCCCCCCCCCCCOc1ccc2ccccc2c1
inactive: [14] 87 % of control | [15] 89 % of control

Clc1nc2nsnc2nc1Cl
inactive: [18] 91 % of control | [11] 110 % of control | [12] 96 % of control | [13] 104 % of control | [16] 94 % of control

From PubChem BioAssay AID248 (DTP/NCI, 2004)
